System: mice with idiopathic pulmonary fibrosis
Assay: Single/combination administration of pirfenidone and Bifidobacterium longum RAPO in idiopathic pulmonary fibrosis mice (intratracheal BLM 2 U/mouse kg)
Type: in vivo
Conditions: for pulmonary fibrosis: FIG. 3
Source text: To determine whether or not administration of a combination of pirfenidone (PFD), which is a conventional approved and used drug for pulmonary fibrosis, with Bifidobacterium longum RAPO, has a synergistic therapeutic effect due to Bifidobacterium longum RAPO, the inhibitory effects on pulmonary fibrosis after single and combination administration of PFD and Bifidobacterium longum were compared and evaluated in mice with idiopathic pulmonary fibrosis.
Idiopathic pulmonary fibrosis was induced by a single intratracheal injection of 50 μL (2 U/mouse kg) of BLM into 8-week-old male C57BL/6 mice to induce pulmonary fibrosis. Pirfenidone (PFD) and Bifidobacterium longum RAPO were administered orally 5 times a week for a total of 2 weeks, starting 7 days after inducing pulmonary fibrosis with BLM until the 21st day, the end date of the experiment. The administration groups and doses were as follows: 1) Normal control group: normal mice that were not administered any treatment; 2) disease control group: IPF mice administered vehicle containing neither PFD nor Bifidobacterium longum RAPO; 3) P100 group: IPF mice administered PFD 100 mg/mouse kg; 4) P200 group: IPF mice administered PFD 200 mg/mouse kg; 5) RAPO-A group: IPF mice administered Bifidobacterium longum RAPO 1×10^8 CFU/mouse; 6) RAPO-B group: IPF mice administered Bifidobacterium longum RAPO 5×10^8 CFU/mouse; 8) Comb A group: IPF mice administered a combination of PFD 100 mg/mouse kg and Bifidobacterium longum RAPO 1×10^8 CFU/mouse; 7) Comb B group: IPF mice administered a combination of 100 mg/mouse kg and Bifidobacterium longum RAPO 5×10^8 CFU/mouse. Efficacy evaluation was performed as follows. Lung tissues of mice with fibrosis induced on the 21st day after the start of BLM administration were sampled and fixed with formalin to form paraffin tissue blocks. The formed paraffin blocks were cut into 5 μm thick sections with a microtome and stained with Masson-Trichrome (MT), and the degree of pulmonary fibrosis was evaluated by analysis of an Ashcroft score, a collagen area, and an alveoli area.

[1] = P100 group: PFD 100 mg/mouse kg alone, compared to vehicle group

With `Cc1ccc(=O)n(-c2ccccc2)c1` [PFD, pirfenidone] the “pulmonary fibrosis amelioration relative to P200 group” value (P100 group: PFD 100 mg/mouse kg alone, compared to P200 group) was “did not ameliorate pulmonary fibrosis comparable to the P200 group”, the Ashcroft score [1] was “improvement” and the collagen area [1] was “improvement”. For the same molecule, the pulmonary fibrosis [1] was “also alleviated pulmonary fibrosis” and the pulmonary fibrosis (P200 group: PFD 200 mg/mouse kg alone, oral, 5 times a week, 2 weeks, compared to vehicle group) was “significantly alleviated pulmonary fibrosis”.

From patent publication US20250288627A1, “COMPOSITION FOR AMELIORATING, PREVENTING OR TREATING SYSTEMIC SCLEROSIS AND PULMONARY FIBROSIS CONTAINING BIFIDOBACTERIUM LONGUM RAPO” (INDUSTRY-ACADEMIC COOPERATION FOUNDATION GYEONGSANG …, priority 2024, published 2025)
